Test results as given in PubChem BioAssay AID2060508 (Molecular Pharmacology Branch, DTP, NCI, 2025).
Values joined by “and” are separate entries in the source; they are usually repeats but may differ in a detail not shown here. Equal values may be shown once.

Tested on: 454973-116-R2-J3-PDC spheroids, viability, % test/control
Assay: Anticancer human tumor 454973-116-R2-J3-PDC patient-derived pancreatic carcinoma cell line growth inhibition [GQUAD]
Details: spheroids with HUVEC and MSC; for viability, T/C: stronger effect = lower value
From the text: DNA G-quadruplex Stabilizer Agents in Combinations in Complex Spheroids
A high-throughput screen of multi-cell type tumor spheroids was designed to identify active combinations of DNA G-quadruplex stabilizer agents and targeted small molecules. Complex spheroids include a stromal component modeled by human endothelial cells (HUVEC) and fibroblasts modeled by human mesenchymal stem cells (MSCs). The concentration ranges selected for each drug and investigational agent were based upon clinically achievable concentrations if the clinical Cmax of the agent was known.
Compounds. The drugs and investigational agents: pidnarulex (CX-5461; NSC782164), APTO-253 (NSC789042), BRACO-19 (NSC847499), peposertib (NSC802822), ceralasertib (NSC780249), elimusertib (NSC800525), camonsertib (NSC841442), AZD-1390 (NSC803789), olaparib (NSC753686), talazoparib (NSC767125), ART-558 (NSC835418), sotorasib (NSC818433), MRTX-1133 (NSC836407), SN-38 (NSC673596), topotecan (NSC609699), etoposide (NSC141540), doxorubicin (NSC123127), gemcitabine (NSC613327), 5-fluorouracil (NSC19893), paclitaxel (NSC125973), vemurafenib (NSC761431), panobinostat (NSC761190), R-306465 (JNJ-16241199; NSC773264), adavosertib (NSC754352), TP-3654 (NSC805149), carboplatin (NSC241240), KSQ-4279 (NSC840948), and staurosporine (NSC755774) were obtained from the National Cancer Institute (NCI) Developmental Therapeutics Program Chemical Repository (34). The FDA-approved anticancer drug set is available from the NCI Developmental Therapeutics Program. […] The stock solutions were prepared in dimethyl sulfoxide (DMSO, Sigma-Aldrich, St. Louis, MO, cat. D2650) at 800-fold the tested concentration and stored at -70 degrees C prior to their use. All drugs and investigational agents were tested over a range starting from a high concentration at or near the clinical Cmax and decreasing in half-log increments. If the clinical Cmax for an agent had not been determined, the highest concentration tested was 10 microM.
2.3 Cell Culture. All cells were maintained in an incubator at 37 degrees C and 5% CO2 with 95% humidity. The PDC lines were cultured according to standard operating procedures established by the NCI PDMR. All PDCs were thawed and cultured in Matrigel-coated flasks prepared with a working solution of 1X Ham's F-12 nutrient mix, without supplementation (Invitrogen, cat. 11765054), 100 U/mL penicillin-streptomycin (Invitrogen, cat. 15140122), and 2.5% Matrigel (Corning Inc., cat. 354248) for the first three passages. The 857933-349-R-J2-PDC line was cultured in 6C/Colon 1B media, which includes advanced DMEM/F-12 (Thermo Fisher Scientific, cat. 12634028), 10 mM HEPES (Thermo Fisher Scientific, cat. 15630080), 1X GlutaMAX supplement (Thermo Fisher Scientific, cat. 35050061), 0.1 mg/mL primocin (InvivoGen, cat. ant-pm-2), 10% defined fetal bovine serum, heat inactivated (HyClone Laboratories Inc., cat. SH30070.03HI), 50% L-WRN conditioned media (ATCC, cat. CRL-3276), 1.25 mM N-Acetyl-L-cysteine (Sigma-Aldrich, cat. A9165), 10 mM nicotinamide (Sigma-Aldrich, cat. N0636), 1X B-27 supplement (Thermo Fisher Scientific, cat. 17504044), 1X N-2 supplement (Thermo Fisher Scientific, cat. 17502048), 10 microM Y-27632 dihydrochloride (Tocris Bioscience, cat. 1254), and 50 ng/mL human EGF recombinant protein (Thermo Fisher Scientific, cat. PHG0311). The 485176-168-R4-J1-PDC line was cultured in Panc media, which includes all 6C/Colon 1B media components plus 100 ng/mL human FGF-10 (Thermo Fisher Scientific, cat. 100-26), 500 nM SB-431542 (Selleckchem, cat. S1067), and gastrin (Tocris, cat. 3006).
[…]
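Further: spheroids exposed to compounds for seven days.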

Row | IC50 (curve of compound) | IC50 (compound alone, run of 04/22/2024) | SMILES | viability, T/C (compound 0.0316 µM) | viability, T/C (compound 0.1 µM) | viability, T/C (compound 0.316 µM) | viability, T/C (compound 1 µM) | viability, T/C (compound 3.16 µM) | viability, T/C (compound 10 µM) | viability, T/C (compound 0.000999 µM) | viability, T/C (compound 0.00316 µM) | viability, T/C (compound 0.00999 µM) | viability, T/C (compound 0.0999 µM)
1 | 42.3 nM and 44.4 nM and 56.7 nM | – | C#Cc1c(F)ccc2cc(O)cc(-c3ncc4c(N5CC6CCC(C5)N6)nc(OCC56CCCN5CC(F)C6)nc4c3F)c12 (stereo unspecified) | 52.7% and 54.6% and 60.6% | 42.3% and 39% and 39.8% | 31.2% and 22.9% and 28.2% | 27.5% and 20.6% and 21.6% | 23.3% and 19.5% and 22% | 19% and 15.4% and 15.2% | – | – | – | –
2 | > 10000 nM | – | C=CC(=O)N1CCN(c2nc(=O)n(-c3c(C)ccnc3C(C)C)c3nc(-c4c(O)cccc4F)c(F)cc23)C(C)C1 (stereo unspecified) | 105% and 109% and 98.9% | 108% and 100% and 98.3% | 108% and 105% and 116% | 111% and 116% and 110% | 111% and 110% and 115% | 115% and 108% and 109% | – | – | – | –
3 | 373 nM and 456 nM and 387 nM | – | C=CCn1c(=O)c2cnc(Nc3ccc(N4CCN(C)CC4)cc3)nc2n1-c1cccc(C(C)(C)O)n1 | 108% (2×) and 104% | 104% and 86.2% and 90.6% | 54.8% and 68.5% and 59.1% | 17.5% and 15.8% and 14.5% | 7.41% and 7.71% and 9.27% | 9.65% and 8.23% and 9.05% | – | – | – | –
4 | < 31.6 nM | – | CC(=O)O[C@H]1C(=O)[C@@]2(C)[C@H]([C@H](OC(=O)c3ccccc3)[C@]3(O)C[C@H](OC(=O)[C@H](O)[C@@H](NC(=O)c4ccccc4)c4ccccc4)C(C)=C1C3(C)C)[C@]1(OC(C)=O)CO[C@@H]1C[C@@H]2O | 16.1% and 19.8% and 21.1% | 8.55% and 9.04% and 12.4% | 7.38% and 7.58% and 9.89% | 7.17% and 7.18% and 9.08% | 6.82% and 7.18% and 9.43% | 9.29% and 10.2% and 11.2% | – | – | – | –
5 | 2030 nM and 1880 nM and 2060 nM | – | CC(C)(O)C1CCC(Nc2ccc3ncc(-c4cccc(C(F)(F)F)c4)n3n2)CC1 (stereo unspecified) | 105% and 109% and 106% | 99.6% and 101% and 93.8% | 98.4% and 95.2% and 111% | 77.4% and 76.5% and 90.4% | 30.5% and 26.7% and 22.5% | 35% and 28.9% and 29.6% | – | – | – | –
6 | > 10000 nM | – | CC(C)n1c(=O)n(C)c2cnc3cc(F)c(-c4ccc(OCCCN5CCCCC5)nc4)cc3c21 | 104% and 111% and 96.6% | 103% and 98.6% and 97.8% | 97.7% and 102% and 92.9% | 101% and 92.8% and 92.4% | 91.9% and 89.9% and 91.4% | 64% and 74.3% and 68.2% | – | – | – | –
7 | 148 nM and 176 nM and 124 nM | – | CC1COCCN1c1cc(-c2ccnn2C)c2ccnc(-c3ccn[nH]3)c2n1 (stereo unspecified) | 93.7% and 96.6% and 80.7% | 60.6% and 68% and 55.6% | 29.6% and 31.4% and 26.2% | 26.3% and 24% and 18.6% | 26.5% and 25.6% and 19.4% | 24.5% and 24% and 22.7% | – | – | – | –
8 | 135 nM and 139 nM and 157 nM | – | CC1COCCN1c1cc(C2(O)CC3CCC(C2)O3)c2cnn(-c3ccn[nH]3)c2n1 (stereo unspecified) | 84.7% and 87.2% and 97.5% | 58.4% and 59.4% and 64.2% | 26.5% and 26.1% and 27.2% | 18% and 21.5% and 23.2% | 17.8% and 23.5% and 22.9% | 12% and 10.9% and 14.2% | – | – | – | –
9 | 5410 nM and 6580 nM and 5950 nM | – | CC1COCCN1c1cc(C2(S(C)(=N)=O)CC2)nc(-c2ccnc3[nH]ccc23)n1 (stereo unspecified) | 104% and 101% (2×) | 108% (2×) and 109% | 106% (2×) and 113% | 100% and 96.2% and 104% | 67.5% and 72.8% and 72.2% | 30% and 37.2% and 31.8% | – | – | – | –
10 | 6250 nM and 5890 nM and 6400 nM | – | CCCS(=O)(=O)Nc1ccc(F)c(C(=O)c2c[nH]c3ncc(-c4ccc(Cl)cc4)cc23)c1F | 105% and 121% and 109% | 108% and 104% and 96.3% | 120% and 112% and 102% | 111% and 113% and 112% | 115% and 99.8% and 108% | 7.3% and 7.67% and 14.8% | – | – | – | –
11 | 45.6 nM and 44.2 nM and 42.7 nM | – | CC[C@@]1(O)C(=O)OCc2c1cc1n(c2=O)Cc2cc3c(CN(C)C)c(O)ccc3nc2-1 | 63.9% and 62.8% and 59.8% | – | 22% and 21.9% and 23.2% | – | – | – | 104% (2×) and 105% | 108% and 109% and 101% | 97.4% and 95.7% and 98.8% | 18.8% and 18.6% and 21.4%
12 | 1.76 nM and 1.83 nM and 1.51 nM | – | CCc1c2c(nc3ccc(O)cc13)-c1cc3c(c(=O)n1C2)COC(=O)[C@]3(O)CC | 14.2% and 15.5% and 15.7% | – | 4.31% and 4.99% and 4.01% | – | – | – | 67.3% and 74.7% and 64.5% | 29.2% and 22.9% and 21.4% | 22.2% and 25.2% and 19.8% | 9.13% and 8.23% and 8.16%
13 | – | > 10000 nM | CN(C)c1ccc(Nc2c3ccc(NC(=O)CCN4CCCC4)cc3nc3cc(NC(=O)CCN4CCCC4)ccc23)cc1 | 107% [middle of 12 runs] | 106% [middle of 12 runs] | 103% [middle of 12 runs] | 98.5% [middle of 12 runs] | 94.8% [middle of 12 runs] | 74% [middle of 12 runs] | – | – | – | –
